# Results: BindingDB's records for doi:10.1007/pl00005288 (King'S College London, 1998)
# Experiments:
# [1] = molecular target: T1, Melatonin receptor type 1B (Gallus gallus, UniProt P51050)
# T1 sequence (P51050 whole entry): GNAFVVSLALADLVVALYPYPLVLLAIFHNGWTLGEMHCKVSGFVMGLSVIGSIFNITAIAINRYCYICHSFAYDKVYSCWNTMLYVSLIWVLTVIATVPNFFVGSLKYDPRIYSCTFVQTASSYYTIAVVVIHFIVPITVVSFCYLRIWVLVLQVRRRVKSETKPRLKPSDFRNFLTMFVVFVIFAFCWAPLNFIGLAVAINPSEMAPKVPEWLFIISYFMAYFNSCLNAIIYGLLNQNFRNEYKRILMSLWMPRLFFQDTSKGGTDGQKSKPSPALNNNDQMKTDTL
# [2] = molecular target: T2, Melatonin receptor type 1C (Xenopus laevis, UniProt P49219)
# T2 sequence (P49219 whole entry): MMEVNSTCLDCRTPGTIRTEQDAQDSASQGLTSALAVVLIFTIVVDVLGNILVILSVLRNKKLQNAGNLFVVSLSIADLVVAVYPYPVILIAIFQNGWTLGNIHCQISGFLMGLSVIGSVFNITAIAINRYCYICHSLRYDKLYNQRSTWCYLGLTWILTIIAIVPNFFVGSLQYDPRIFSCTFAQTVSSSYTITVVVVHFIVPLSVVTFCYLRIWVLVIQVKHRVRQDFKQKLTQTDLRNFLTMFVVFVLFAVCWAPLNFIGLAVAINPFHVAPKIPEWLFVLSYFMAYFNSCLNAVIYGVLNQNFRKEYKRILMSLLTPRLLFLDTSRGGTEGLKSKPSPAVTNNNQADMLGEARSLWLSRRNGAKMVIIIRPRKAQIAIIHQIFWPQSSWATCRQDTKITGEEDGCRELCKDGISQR
# [3] = molecular target: Melatonin receptor type 1A (Homo sapiens, UniProt P48039)
# [4] = molecular target: T3, Melatonin receptor type 1B (Homo sapiens, UniProt P49286)
# T3 sequence (P49286 whole entry): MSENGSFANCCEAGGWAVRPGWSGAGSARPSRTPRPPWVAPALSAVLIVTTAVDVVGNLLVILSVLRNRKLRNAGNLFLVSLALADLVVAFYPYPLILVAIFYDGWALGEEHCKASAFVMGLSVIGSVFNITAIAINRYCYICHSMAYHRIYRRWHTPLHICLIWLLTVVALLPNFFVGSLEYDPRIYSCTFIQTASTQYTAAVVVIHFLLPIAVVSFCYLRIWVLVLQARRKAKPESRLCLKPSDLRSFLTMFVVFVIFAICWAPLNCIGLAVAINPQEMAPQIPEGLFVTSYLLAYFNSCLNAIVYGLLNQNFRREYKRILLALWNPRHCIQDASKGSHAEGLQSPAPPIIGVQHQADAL
# Melatonin receptor type 1A, sequence (P48039 whole entry): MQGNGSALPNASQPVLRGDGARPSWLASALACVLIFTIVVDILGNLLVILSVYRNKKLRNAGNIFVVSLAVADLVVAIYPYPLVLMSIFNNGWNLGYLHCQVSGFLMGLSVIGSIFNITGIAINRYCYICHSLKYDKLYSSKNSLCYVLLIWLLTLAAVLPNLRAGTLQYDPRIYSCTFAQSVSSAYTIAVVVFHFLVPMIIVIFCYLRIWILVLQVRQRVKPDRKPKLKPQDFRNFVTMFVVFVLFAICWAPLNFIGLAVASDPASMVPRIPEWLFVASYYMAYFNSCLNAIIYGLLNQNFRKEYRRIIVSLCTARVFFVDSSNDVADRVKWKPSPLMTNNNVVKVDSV
Ki [1] [µM],Ki [2] [µM],Ki [3] [µM],Ki [4] [µM],Compound
1.74,2.04,0.513,0.0269,CC(=O)NCCc1c(Cc2ccccc2)[nH]c2ccccc12 [CAS_117946-91-5]
0.776,1.38,0.339,0.324,"CCCCCC(=O)NCCc1c(Cc2ccccc2)[nH]c2ccc(OC)cc12 [Luzindole,5-MeOT-N-hexanyl]"
> 10,3.8,3.02,1.32,"CCCC(=O)NCCc1c(Cc2ccccc2)[nH]c2ccccc12 [Luzindole,N-butanoyl]"
6.46,5.75,5.5,7.08,"CCCCCC(=O)NCCc1c(Cc2ccccc2)[nH]c2ccccc12 [Luzindole,N-hexanoyl]"
0.933,2.14,0.832,0.00933,"CCCCC(=O)NCCc1c(Cc2ccccc2)[nH]c2ccccc12 [Luzindole,N-pentanoyl]"
1.95,3.16,0.776,0.0229,"CCC(=O)NCCc1c(Cc2ccccc2)[nH]c2ccccc12 [Luzindole,N-propanoyl]"
